What all share (type): cell-based
In one data set the test system is HIV-1 (IIIB) strain. Put plainly: Anti-HIV activity: inhibition of MT-4 cell death by HIV infection (MTT method). The note with it: for EC50: MT-4 CD4+ T cells infected by HIV-1 (IIIB), 37° C., 5 days, MTT, average of at least three measurements, read-out: EC50 (concentration where MT-4 cell death by HIV infection is inhibited by 50%); for anti-HIV activity in words, compared with T140: conclusion drawn from Table 3. On the procedure:
(§1) HIV-1 (IIIB) strain obtained from MOLT/HIV-1 (IIIB) cell previously infected by HIV-1 was used. The polypeptide of the present invention was added to MT-4 CD4^+ T cells infected by HIV in various kinds of concentrations, and a number of living cells after culturing at 37° C. for 5 days was determined by using a 3′-(4,5-dimethylthiazol-2-yl)-2,5-diphenyltetrazolinium bromide (MTT) method. Anti-HIV activity is shown by a concentration (EC50 value), where MT-4 cell death by HIV infection is inhibited by 50%. Cytotoxicity of the peptide according to the present invention was shown by a 50% survival concentration (Test I: CC50 value) by culturing virus-uninfected MT-4 cells with the polypeptide according to the present invention in various concentrations, and determining a number of living cells by the MTT method. Moreover, a number of living cells of human peripheral blood mononuclear cells (monocyte) (PBMC) was determined by trypan blue dyeing method, and shown by a 50% survival concentration (Test II: CC50 value). Respective ratios of the CC50 value and the EC50 value were shown as a selective index (SI). Obtained values were summarized in Table 3 using the conventionally known polypeptides T134 and T140, and an anti-HIV compound: 3′-azido-2′,3′-dideoxythymidine (AZT) used as a medicine as a control anti-HIV agent.
On the technique in general: Formazan colour is commonly taken as a measure of viable cells.

In data set [1] the test system is human peripheral blood mononuclear cells (PBMC). Briefly: Cytotoxicity Test II: human PBMC, trypan blue dyeing method. As to conditions: selective index, PBMC CC50 over anti-HIV EC50.
Test in data set [2]: as above
As to conditions: human PBMC, trypan blue dyeing method; read-out: CC50 (Test II), 50% survival concentration.

Data set [3] has as its system virus-uninfected MT-4 cells. Put plainly: Cytotoxicity Test I: virus-uninfected MT-4 cells, MTT method. The note with it: for cytotoxicity in words, compared with conventional T134/T140: conclusion drawn from Table 3; for SI: CC50 (Test I)/EC50: selective index, MT-4 CC50 over anti-HIV EC50. How it is done: as §1
Test in data set [4]: as above
The note with it: human, MT-4 cells (virus-uninfected); virus-uninfected MT-4 cells, MTT method; read-out: CC50 (Test I), 50% survival concentration. How it is done: as §1

Where a SMILES comes first, the peptide text is derived from it. Bridges are numbered along the chain shown (N, C = ends). [ ]: non-standard residue; d: D form. 2Nal = N[C@@H](Cc1ccc2ccccc2c1)C(=O)O; Cit = NC(=O)NCCC[C@H](N)C(=O)O

For the compound `NCCCC[C@@H]1NC(=O)[C@H](CCCN=C(N)N)NC(=O)[C@H](Cc2ccc(O)cc2)NC(=O)[C@@H](NC(=O)[C@H](Cc2ccc3ccccc3c2)NC(=O)[C@H](CCCN=C(N)N)NC(=O)[C@@H](N)CCCN=C(N)N)CSSC[C@@H](C(=O)N[C@@H](CCCN=C(N)N)C(=O)O)NC(=O)[C@H](CCCNC(N)=O)NC(=O)[C@H](CCCN=C(N)N)NC(=O)[C@H](Cc2ccc(O)cc2)NC(=O)[C@@H]2CCCN2C(=O)[C@@H](CCCNC(N)=O)NC1=O` [TC14005, H-Arg-Arg-NaI-Cys-Tyr-Arg-Lys-DCit-Pro-Tyr-Arg-Cit-Cys-Arg-OH], in the data set on HIV-1 (IIIB) strain, the EC50 was found to be 0.004 µM and the “anti-HIV activity in words, compared with T140” value is given as “substantially the same anti-HIV activity as that of the conventionally known T140”. Also, in data set [1], the “SI: CC50 (Test II)/EC50” value stood at 69000. Moreover, the CC50 in data set [2] was 280 µM. For the same compound, in data set [3], the “cytotoxicity in words, compared with conventional T134/T140” value was “cytotoxicity is markedly lowered” and the “SI: CC50 (Test I)/EC50” value is more than 20000. In data set [4], the CC50 is more than 80 µM.

`NCCCC[C@@H]1NC(=O)[C@H](CCCN=C(N)N)NC(=O)[C@H](Cc2ccc(O)cc2)NC(=O)[C@@H](NC(=O)[C@H](Cc2ccc3ccccc3c2)NC(=O)[C@H](CCCN=C(N)N)NC(=O)[C@@H](N)CCCN=C(N)N)CSSC[C@@H](C(=O)N[C@@H](CCCN=C(N)N)C(=O)O)NC(=O)[C@H](CCCNC(N)=O)NC(=O)[C@H](CCCNC(N)=O)NC(=O)[C@H](Cc2ccc(O)cc2)NC(=O)[C@@H]2CCCN2C(=O)[C@@H](CCCCN)NC1=O` [TC14006, H-Arg-Arg-Nal-Cys-Tyr-Arg-Lys-DLys-Pro-Tyr-Cit-Cit-Cys-Arg-OH] (H-RR[2Nal]CYRK[dK]PY[Cit][Cit]CR-OH; disulfide 4-13): the “SI: CC50 (Test II)/EC50” value in data set [1] came to 20000. Also, the CC50 in data set [2] was 310 µM; in data set [4], more than 80 µM. Moreover, the “SI: CC50 (Test I)/EC50” value in data set [3] was more than 5300.

On to `C[C@@H]1NC(=O)[C@H](Cc2ccc(O)cc2)NC(=O)[C@@H]2CCCN2C(=O)[C@@H](CCCCN)NC(=O)[C@H](CCCCN)NC(=O)[C@H](CCCNC(=N)N)NC(=O)[C@H](Cc2ccc(O)cc2)NC(=O)[C@@H](NC(=O)[C@H](Cc2ccc3ccccc3c2)NC(=O)[C@H](CCCNC(=N)N)NC(=O)[C@@H](N)CCCNC(=N)N)CSSC[C@@H](C(=O)N[C@@H](CCCNC(=N)N)C(=O)O)NC(=O)[C@H](CCCNC(N)=O)NC1=O` [TA14010, H-Arg-Arg-Nal-Cys-Tyr-Arg-Lys-DLys-Pro-Tyr-Ala-Cit-Cys-Arg-OH] (H-RR[2Nal]CYRK[dK]PYA[Cit]CR-OH; disulfide 4-13), for which, in the data set on HIV-1 (IIIB) strain, the EC50 worked out at 0.018 µM. Further, in data set [3], the “SI: CC50 (Test I)/EC50” value is given as more than 4800. Besides, the CC50 in data set [4] was more than 80 µM.

In the case of `N=C(N)NCCC[C@H](NC(=O)[C@@H]1CSSC[C@H](NC(=O)[C@H](Cc2ccc3ccccc3c2)NC(=O)[C@H](CCCNC(=N)N)NC(=O)[C@@H](N)CCCNC(=N)N)C(=O)N[C@@H](Cc2ccc(O)cc2)C(=O)N[C@@H](CCCNC(N)=O)C(=O)N[C@@H](CCCCN)C(=O)N[C@H](CCCNC(N)=O)C(=O)N2CCC[C@H]2C(=O)N[C@@H](Cc2ccc(O)cc2)C(=O)N[C@@H](CCCNC(=N)N)C(=O)N[C@@H](CCCNC(N)=O)C(=O)N1)C(N)=O` [TC14012, H-Arg-Arg-NaI-Cys-Tyr-Cit-Lys-DCit-Pro-Tyr-Arg-Cit-Cys-Arg-NH2], in the data set on HIV-1 (IIIB) strain, the EC50 came out at 0.0004 µM and the “anti-HIV activity in words, compared with T140” value was “higher anti-HIV activity”. Besides, in data set [3], the “cytotoxicity in words, compared with conventional T134/T140” value is on record as “lowered cytotoxicity” and the “SI: CC50 (Test I)/EC50” value is listed as more than 250000. Further, the CC50 in data set [4] is more than 100 µM.

Consider `N=C(N)NCCC[C@H](NC(=O)[C@@H]1CSSC[C@H](NC(=O)[C@H](Cc2ccc3ccccc3c2)NC(=O)[C@H](CCCNC(=N)N)NC(=O)[C@@H](N)CCCNC(N)=O)C(=O)N[C@@H](Cc2ccc(O)cc2)C(=O)N[C@@H](CCCNC(=N)N)C(=O)N[C@@H](CCCCN)C(=O)N[C@H](CCCNC(N)=O)C(=O)N2CCC[C@H]2C(=O)N[C@@H](Cc2ccc(O)cc2)C(=O)N[C@@H](CCCNC(=N)N)C(=O)N[C@@H](CCCNC(N)=O)C(=O)N1)C(N)=O` [TC14018, H-Cit-Arg-Nal-Cys-Tyr-Arg-Lys-DCit-Pro-Tyr-Arg-Cit-Cys-Arg-NH2], for which the EC50 in the data set with HIV-1 (IIIB) strain amounted to 0.0012 µM. Further, in data set [3], the “cytotoxicity in words, compared with conventional T134/T140” value was “lowered cytotoxicity” and the “SI: CC50 (Test I)/EC50” value is more than 83000. Further, the CC50 in data set [4] was more than 100 µM.

With `NCCCC[C@@H]1NC(=O)[C@H](CCCN=C(N)N)NC(=O)[C@H](Cc2ccc(O)cc2)NC(=O)[C@@H](NC(=O)[C@H](Cc2c[nH]c3ccccc23)NC(=O)[C@H](CCCN=C(N)N)NC(=O)[C@@H](N)CCCN=C(N)N)CSSC[C@@H](C(=O)N[C@@H](CCCN=C(N)N)C(=O)O)NC(=O)[C@H](CCCNC(N)=O)NC(=O)[C@H](CCCN=C(N)N)NC(=O)[C@H](Cc2ccc(O)cc2)NC(=O)[C@@H]2CCCN2C(=O)[C@@H](CCCCN)NC1=O` [Compound T134, H-Arg-Arg-Trp-Cys-Tyr-Arg-Lys-DLys-Pro-Tyr-Arg-Cit-Cys-Arg-OH, reference compound] (H-RRWCYRK[dK]PYR[Cit]CR-OH; disulfide 4-13), the “SI: CC50 (Test II)/EC50” value in data set [1] came to 23000. Further, the CC50 in data set [2] is 190 µM; in data set [4] it was more than 1 µM. Also, the “SI: CC50 (Test I)/EC50” value in data set [3] is reported as >>120.

In the case of `N=C(N)NCCC[C@H](NC(=O)[C@@H]1CSSC[C@H](NC(=O)[C@H](Cc2ccc3ccccc3c2)NC(=O)[C@H](CCCNC(=N)N)NC(=O)[C@@H](N)CCCNC(=N)N)C(=O)N[C@@H](Cc2ccc(O)cc2)C(=O)N[C@@H](CCCNC(N)=O)C(=O)N[C@@H](CCCCN)C(=O)N[C@H](CCCCN)C(=O)N2CCC[C@H]2C(=O)N[C@@H](Cc2ccc(O)cc2)C(=O)N[C@@H](CCCNC(=N)N)C(=O)N[C@@H](CCCNC(N)=O)C(=O)N1)C(N)=O` [TN14003, H-Arg-Arg-Nal-Cys-Tyr-Cit-Lys-DLys-Pro-Tyr-Arg-Cit-Cys-Arg-NH2] (H-RR[2Nal]CY[Cit]K[dK]PYR[Cit]CR-NH2; disulfide 4-13 (inferred)), the EC50 in the data set on HIV-1 (IIIB) strain was 0.0006 µM. For the same compound, in data set [3], the “cytotoxicity in words, compared with conventional T134/T140” value is “lowered cytotoxicity” and the “SI: CC50 (Test I)/EC50” value is given as more than 166000. In data set [4], the CC50 was more than 100 µM.

For `N=C(N)NCCC[C@H](NC(=O)[C@@H]1CSSC[C@H](NC(=O)[C@H](Cc2ccc3ccccc3c2)NC(=O)[C@H](CCCNC(=N)N)NC(=O)[C@@H](N)CCCNC(=N)N)C(=O)N[C@@H](Cc2ccc(O)cc2)C(=O)N[C@@H](CCCNC(N)=O)C(=O)N[C@@H](CCCCN)C(=O)N[C@H](CCCNC(N)=O)C(=O)N2CCC[C@H]2C(=O)N[C@@H](Cc2ccc(O)cc2)C(=O)N[C@@H](CCCNC(=N)N)C(=O)N[C@@H](CCCNC(N)=O)C(=O)N1)C(=O)O` [TC14011, H-Arg-Arg-Nal-Cys-Tyr-Cit-Lys-DCit-Pro-Tyr-Arg-Cit-Cys-Arg-OH], the EC50 with HIV-1 (IIIB) strain came to 0.0005 µM. Moreover, in data set [3], the “cytotoxicity in words, compared with conventional T134/T140” value is recorded as “lowered cytotoxicity” and the “SI: CC50 (Test I)/EC50” value is listed as more than 200000. In data set [4], the CC50 is more than 100 µM.

Take `NCCCC[C@H]1NC(=O)[C@H](CCCNC(N)=O)NC(=O)[C@H](CCCN=C(N)N)NC(=O)[C@H](Cc2ccc(O)cc2)NC(=O)[C@@H](NC(=O)[C@H](Cc2ccc3ccccc3c2)NC(=O)[C@H](CCCN=C(N)N)NC(=O)[C@@H](N)CCCN=C(N)N)CSSC[C@@H](C(=O)N[C@@H](CCCN=C(N)N)C(=O)O)NC(=O)[C@H](CCCNC(N)=O)NC(=O)[C@H](CCCN=C(N)N)NC(=O)[C@H](Cc2ccc(O)cc2)NC(=O)[C@@H]2CCCN2C1=O` [TC14004, H-Arg-Arg-Nal-Cys-Tyr-Arg-Cit-DLys-Pro-Tyr-Arg-Cit-Cys-Arg-OH] (H-RR[2Nal]CYR[Cit][dK]PYR[Cit]CR-OH; disulfide 4-13): the “SI: CC50 (Test II)/EC50” value in data set [1] came to 16000. Further, the values for the CC50 in data set [2] and in data set [4] were 270 µM and more than 80 µM, respectively. Also, the “SI: CC50 (Test I)/EC50” value in data set [3] is more than 5000.

`NCCCC[C@@H]1NC(=O)[C@H](CCCNC(N)=O)NC(=O)[C@H](Cc2ccc(O)cc2)NC(=O)[C@@H](NC(=O)[C@H](Cc2ccc3ccccc3c2)NC(=O)[C@H](CCCN=C(N)N)NC(=O)[C@@H](N)CCCN=C(N)N)CSSC[C@@H](C(=O)N[C@@H](CCCN=C(N)N)C(=O)O)NC(=O)[C@H](CCCNC(N)=O)NC(=O)[C@H](CCCN=C(N)N)NC(=O)[C@H](Cc2ccc(O)cc2)NC(=O)[C@@H]2CCCN2C(=O)[C@@H](CCCCN)NC1=O` [TC14003, H-Arg-Arg-Nal-Cys-Tyr-Cit-Lys-DLys-Pro-Tyr-Arg-Cit-Cys-Arg-OH] (H-RR[2Nal]CY[Cit]K[dK]PYR[Cit]CR-OH; disulfide 4-13): the “SI: CC50 (Test II)/EC50” value in data set [1] was determined as 160000. Moreover, the CC50 in data set [2] was 310 µM; in data set [4], more than 80 µM. The “cytotoxicity in words, compared with conventional T134/T140” value in data set [3] was “cytotoxicity is markedly lowered”. Further, the “SI: CC50 (Test I)/EC50” value in data set [3] is reported as more than 29000.
